What was measured:
FOXP3 = target: T1, FOXP3 (Homo sapiens, UniProt Q9BZS1); assay: FOXP3 function inhibitory activity, NF-κB luciferase reporter in HEK293/NF-κB-RE/FOXP3 cells with TNF-alpha; format: cell-based; conditions: for Chemiluminescence intensity ratio (HEK293/NF-κB-RE/FOXP3 cells / HEK293/NF-κB-RE cells): DMSO control = 1.0
T1 construct: expressed in transfected cells
T1 sequence (Q9BZS1 1-431): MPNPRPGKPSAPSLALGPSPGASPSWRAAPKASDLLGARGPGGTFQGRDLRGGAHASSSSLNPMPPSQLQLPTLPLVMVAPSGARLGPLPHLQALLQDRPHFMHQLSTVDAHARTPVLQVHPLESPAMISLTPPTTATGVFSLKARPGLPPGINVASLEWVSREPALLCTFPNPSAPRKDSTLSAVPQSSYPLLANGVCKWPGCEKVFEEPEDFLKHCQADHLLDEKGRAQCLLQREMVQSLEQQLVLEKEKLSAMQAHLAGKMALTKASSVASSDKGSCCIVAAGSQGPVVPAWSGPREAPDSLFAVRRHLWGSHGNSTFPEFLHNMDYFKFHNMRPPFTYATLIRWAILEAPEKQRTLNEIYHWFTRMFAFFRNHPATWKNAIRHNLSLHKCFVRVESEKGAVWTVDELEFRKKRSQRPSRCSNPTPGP
Description: Into HEK293/NF-κB-RE cells, pcDNA3.1-FOXP3 (Department of Cancer vaccine therapy/Immuno-gene therapy, Mie University Graduate School of Medicine), which is a FOXP3 gene expression vector, was introduced, and the cells were subjected to a selection through culture in a medium containing 0.5 mg/mL G418 for 3 weeks. The obtained single clone was isolated and established as a stable line. For culture, DMEM containing 10% heat inactivated […], 0.2 mg/mL Hygromycin B, and 0.5 mg/mL G418 was used.
A cell suspension of 1.875×10^5 cells/mL was prepared for HEK293/NF-κB-RE/FOXP3 cells and HEK293/NF-κB-RE cells, respectively, using DMEM with 10% heat inactivated FBS and without phenol red (medium for assay). The cell suspension was seeded into a 96 well white microplate (nunc) at 80 μL/well (1.5×10^4 cells/well) and the cells were cultured overnight under the conditions of 37° C. and 5% CO2.
A DMSO solution of a test drug with a concentration of 1000 times the final concentration was diluted 100 times with the medium for assay to prepare a test drug solution with a concentration of 10 times the final concentration (a 10 times concentration test drug solution). To each well into which the cell suspension was seeded, 10 μL of the 10 times concentration test drug solution was added and treatment was carried out under the conditions of 37° C. and 5% CO2 for an hour (10 μL of a 1% DMSO solution was added to the control at this time).
Recombinant Human TNF-alpha (R&D Systems) was made to 100 μg/mL with 0.1% BSA-containing PBS, and was further diluted with the medium for assay to prepare a 3 ng/mL TNF-alpha solution. To each well described above, 10 μL of the 3 ng/mL TNF-alpha solution was added, and stimulation was performed under the conditions of 37° C. and 5% CO2 for 2.5 hours (the final concentration of TNF-alpha: 0.3 ng/mL).
The culture supernatant was removed, and the cells were washed once with 100 μL of the medium for assay. After adding 100 μL of the medium for assay, 50 μL of Steady-Glo (Promega Corporation) was added. The microplate was shaken for 10 minutes on a plate shaker with the light blocked. After shaking, the chemiluminescence intensity was measured by ARVO Light plate reader (Perkin Elmer). It should be noted that each test was carried out three times. The results obtained by using HEK293/NF-κB-RE/FOXP3 cells are shown in FIG. 1(A) and the results obtained by using HEK293/NF-κB-RE cells are shown in FIG. 1(B).
The FOXP3 inhibitory activity was evaluated in the same method as that in Example 1 except that the test drug was changed to epirubicin, pirarubicin, daunorubicin, doxorubicin, or idarubicin. The final concentration of each test drug was 0.01, 0.03, 0.1, 0.3 or 1 μM (only epirubicin and doxorubicin were tested also at 1 μM, and idarubicin was tested only at 0.01 and 0.03 μM).
Furthermore, the chemiluminescence intensity ratio was calculated by the Formula 1 below. The test was carried out three times. Chemiluminescence intensity ratio=(chemiluminescence intensity measured when HEK293/NF-κB-RE/FOXP3 cells were used)/(chemiluminescence intensity measured when HEK293/NF-κB-RE cells were used) [Formula 1] 3. Results

mouse regulatory T cells = assay: Overcoming immunosuppressive action of mouse regulatory T cells: growth of CFSE-stained CD8+ T cells co-cultured with epirubicin-treated CD4+CD25+ T lymphocytes; format: cell-based, BALB/c mice; conditions: in the presence of regulatory T cells treated with epirubicin at a low dose not showing cytotoxicity, FIG. 2
Description: Anti-CD3 antibody (1 μg/mL, manufactured by eBioscience) was added to a 12 well flat-bottom plate and the plate was left to stand at 4° C. overnight, and then washed with RPMI 1640 medium. Spleen was isolated from BALB/c mice, and CD4^+CD25^+ T lymphocytes were isolated using a mouse regulatory T cell isolation kit (manufactured by Miltenyi Biotec) and autoMACS separator (manufactured by Miltenyi Biotec). To the 12 well flat-bottom plate coated with anti-CD3 antibody, seven hundred thousand CD4^+CD25^+ T lymphocytes per well were added, and anti-CD28 antibody (manufactured by eBioscience) and IL-2 (NOVARTIS) were added so that the concentrations were 1 μg/mL and 60 IU/mL, respectively. Next, epirubicin was added at various concentrations and the lymphocytes were cultured in an incubator at 37° C. for 48 hours and then washed with a 10% FBS supplemented RPMI 1640 medium.
Anti-CD3 antibody (1 μg/mL, manufactured by eBioscience) was added to a 96 well flat-bottom plate and the plate was left to stand at 4° C. overnight, and then washed with RPMI 1640 medium. […] The lymphocytes were collected and washed with PBS containing 0.5% BSA, and then stained with anti-CD8-APC antibody (manufactured by eBioscience) and analyzed using FACS Canto II flow cytometer (manufactured by Becton Dickinson).

HEK293/NF-κB-RE cells = assay: NF-κB luciferase reporter in HEK293/NF-κB-RE cells without FOXP3, with TNF-alpha; format: cell-based, human; conditions: epirubicin 0.003-1 μM, TNF-alpha 0.3 ng/mL, FIG. 1(B)
Excerpt: Herein, the activity of inhibiting FOXP3 function can be evaluated by preparing HEK293 cells (HEK293/NF-κB-RE cells) into which a luciferase reporter vector has been stably introduced and cells (HEK293/NF-κB-RE/FOXP3 cells) obtained by stably introducing the FOXP3 gene into the HEK293/NF-κB-RE cells, adding a test drug and TNF-alpha (TNF-α) thereto, followed by culture, and measuring a difference in chemiluminescence intensity in each cell group.
Into a human embryonic kidney-derived cell line HEK293 (RIKEN CELL BANK), pGL4.32 [luc2P/NF-κB-RE/Hygro] (Promega Corporation), which is a luciferase reporter vector, was introduced, and the cells were subjected to a selection through culture in a medium containing 0.2 mg/mL Hygromycin B for 3 weeks. The obtained single clone was isolated and established as a stable line. For culture, DMEM (Dulbecco's Modified Eagle's Medium) containing 10% heat inactivated FBS and 0.2 mg/mL Hygromycin B was used.
A cell suspension of 1.875×10^5 cells/mL was prepared for HEK293/NF-κB-RE/FOXP3 cells and HEK293/NF-κB-RE cells, respectively, using DMEM with 10% heat inactivated FBS and without phenol red (medium for assay). […]
The culture supernatant was removed, and the cells were washed once with 100 μL of the medium for assay. […] After shaking, the chemiluminescence intensity was measured by ARVO Light plate reader (Perkin Elmer). […]

[1] = test system: CD4+FOXP3+ and CD4+FOXP3− tumor-infiltrating lymphocytes; assay: IFN-γ positive cells among tumor-infiltrating lymphocytes of CMS5a tumor-bearing mice; format: in vivo, BALB/c mice; conditions: epirubicin 0.1, 0.3, 1 mg/kg intravenously on days 3, 5, 7, TIL collected day 8
Description: CMS5a cells were transplanted under the skin in the posterodorsal region of female BALB/c mice (8 mice per group) on day 0. […] On day 8, the mice were euthanized and tumors were collected. Using gentle MACS dissociator (manufactured by Miltenyi Biotec) in accordance with the instruction manual, tumor-infiltrating lymphocytes (TIL) were separated from the tumors. The collected cells were seeded into a 24 well plate and stimulated with phorbol 12-myristate 13-acetate (PMA) and ionomycin under the condition of 37° C. for an hour, and then cultured with GolgiPlug (BD Biosciences) for 6 hours. After collecting the cells, the cells were stained with PreCP-CyTM5.5 rat anti-mouse CD4 antibody (manufactured by BD Pharmingen) and V500 rat anti-mouse CD8a antibody (manufactured by BD Horizon) under the condition of 4° C. for 15 minutes. The stained cells were fixed with Fixation/Permeabilization Concentrate and Diluent (1:3, manufactured by eBioscience) under the condition of 4° C. overnight. […] The stained cells were analyzed using FACS Canto II flow cytometer (manufactured by Becton Dickinson).

[2] = test drug concentration 0.01 (μM)
[3] = test drug concentration 0.03 (μM)
[4] = test drug concentration 0.1 (μM)
[5] = test drug concentration 0.3 (μM)

| SMILES | Chemiluminescence intensity ratio (HEK293/NF-κB-RE/FOXP3 cells / HEK293/NF-κB-RE cells) (FOXP3; [2]) | Chemiluminescence intensity ratio (HEK293/NF-κB-RE/FOXP3 cells / HEK293/NF-κB-RE cells) (FOXP3; [3]) | Chemiluminescence intensity ratio (HEK293/NF-κB-RE/FOXP3 cells / HEK293/NF-κB-RE cells) (FOXP3; [4]) | Chemiluminescence intensity ratio (HEK293/NF-κB-RE/FOXP3 cells / HEK293/NF-κB-RE cells) (FOXP3; [5]) | Chemiluminescence intensity ratio (HEK293/NF-κB-RE/FOXP3 cells / HEK293/NF-κB-RE cells) (FOXP3; test drug concentration 1 (μM)) | growth rate of CD8+ T cells (mouse regulatory T cells) | chemiluminescence intensity (HEK293/NF-κB-RE cells) | FOXP3 inhibitory activity (Example 2, in words) (FOXP3; 0.01-1 μM, Table 2) | inhibition of FOXP3 function (conclusion of Example 1) (FOXP3; FOXP3 cells compared with cells without FOXP3) | chemiluminescence intensity compared to control (FOXP3; HEK293/NF-κB-RE/FOXP3 cells, 0.1 μM) | chemiluminescence intensity compared to control (FOXP3; HEK293/NF-κB-RE/FOXP3 cells, 0.3 or 1 μM) | chemiluminescence intensity (FOXP3; HEK293/NF-κB-RE/FOXP3 cells, epirubicin 0.003-1 μM, TNF-alpha 0.3 ng/mL, FIG. 1(A)) | proportion of IFN-γ positive cells to CD4+FOXP3+ cells ([1]; FIG. 3(A)) | proportion of IFN-γ positive cells to CD4+FOXP3− cells ([1]; FIG. 3(B)) |
| --- | --- | --- | --- | --- | --- | --- | --- | --- | --- | --- | --- | --- | --- | --- |
| CC(=O)[C@]1(O)Cc2c(O)c3c(c(O)c2[C@@H](O[C@H]2C[C@H](N)[C@H](O)[C@H](C)O2)C1)C(=O)c1ccccc1C3=O [Idarubicin, idarubicin] | 1.02 | 1.21 | – | – | – | – | – | – | – | – | – | – | – | – |
| COc1cccc2c1C(=O)c1c(O)c3c(c(O)c1C2=O)C[C@@](O)(C(=O)CO)C[C@@H]3O[C@H]1C[C@H](N)[C@H](O)[C@H](C)O1 [Doxorubicin, doxorubicin] | 0.97 | 1.08 | 1.14 | 1.29 | 1.38 | – | – | – | – | – | – | – | – | – |
| COc1cccc2c1C(=O)c1c(O)c3c(c(O)c1C2=O)C[C@@](O)(C(=O)CO)C[C@@H]3O[C@H]1C[C@H](N)[C@@H](O)[C@H](C)O1 [Epirubicin, epirubicin] | 1.29 | 1.39 | 1.42 | 1.62 | 2.37 | increased in a concentration-dependent manner | concentration-dependent changes were not observed | increased in a concentration-dependent manner | selectively inhibited FOXP3 function | significantly high as compared to that in the control at P<0.05 | significantly high as compared to that in the control at P<0.01 | increased in an epirubicin concentration-dependent manner | increased in a concentration-dependent manner | did not vary |
| COc1cccc2c1C(=O)c1c(O)c3c(c(O)c1C2=O)C[C@@](O)(C(C)=O)C[C@@H]3O[C@H]1C[C@H](N)[C@H](O)[C@H](C)O1 [Daunorubicin, daunorubicin] | 1.09 | 1.12 | 1.82 | 2.07 | – | – | – | – | – | – | – | – | – | – |
| COc1cccc2c1C(=O)c1c(O)c3c(c(O)c1C2=O)C[C@@](O)(C(=O)CO)C[C@@H]3O[C@H]1C[C@H](N)[C@H](O[C@@H]2CCCCO2)[C@H](C)O1 [Pirarubicin, pirarubicin] | 1.03 | 1.08 | 1.53 | 1.50 | – | – | – | – | – | – | – | – | – | – |

— patent publication US11213538B2, “Agent for overcoming immunosuppression and use thereof” (GENERAL INCORPORATED ASSOCIATION PHARMA VALLEY PROJECT …, priority 2016, dated 2022)
